No end group written: not given here.
How the values were obtained:
[1] = tested on: human pancreatic α cells; assay: Fluorescence microscopy: binding of biotinylated homodimer CDR peptides to human pancreatic α cells; type: cell-based; conditions: biotinylated homodimers; fluoresceinated antibiotin as second step reagent
Protocol: (§1) An N terminal cysteine was added to each of the hypervariable region sequences (CDR-L1-3 and CDR-H1-3, SEQ ID NOs:6 to 16) which were synthesised by Fmoc peptide synthesis and dimerised to form homodimers. Some of each of the homodimers was biotinylated; the biotinylated homodimers were then tested by fluorescence microscopy for their ability to bind to human pancreatic a cells (used as an indicator human tissue) by using fluoresceinated antibiotin as a second step reagent. […] The non-biotinylated homodimer peptides were then tested by ELISAs for their ability to bind to anti-TCR Vβ antibody and to cardiolipin as an indicator of phospholipids (Table 1).

[2] = tested on: anti-TCR Vβ antibody; assay: ELISA binding to anti-TCR Vβ antibody; conditions: plate coated with homodimer peptide; for Optical density reading, ELISA, antigen α-TCRVβ antibody: tested against α-TCR Vβ, mean ± SD, three observations; for Ratio Test/Control: α-TCRVβ antibody vs PBS/culture medium control
Protocol: as §1

[3] = ELISA binding to cardiolipin as an indicator of phospholipids; conditions: for Ratio Test/Control: cardiolipin vs ethyl alcohol control; for Optical density reading, ELISA, antigen cardiolipin: plate coated with cardiolipin in ethyl alcohol, tested against antibody or homodimer peptide, mean ± SD, three observations
Protocol: as §1

[4] = Phase IIb randomised double blind trial in type 2 diabetics after stopping antidiabetic medication; type: in vivo, human
Protocol: 31 subjects (21 males and 10 females) with type 2 diabetes mellitus on one or more oral antidiabetic medication(s) were entered into a randomised double blind study of 16 weeks duration. At day 01 all antidiabetic medication was stopped. Patients were randomised to either the placebo group (group C) or one of 3 treatment groups described as Groups A, B or D. All groups received a total of 4 IM injections spaced one week apart starting from day 01. The placebo group (8 subjects) received 1.2 ml of saline containing 0.1% alhydrogel. Group A (7 subjects) received 1.51 mg of a peptide according to the invention (designated as NDX-71 herein) in 1.2 ml saline containing 0.1% alhydrogel. Group B (8 subjects) received 0.86 mg NDX-71 in 1.2 ml saline containing 0.1% alhydrogel. Group D (8 subjects) received a mixture of 3 peptides of the invention (0.92 mg NDX-71, 0.68 mg C80 and 0.71 mg F90) in 1.2 ml saline containing 0.1% alhydrogel. Placebo and study medications were visibly identical. The NDX-71 peptide used in this example was the B71 peptide used in Example 6. The C80 and F90 peptides used in this example were the C80 and F90 peptides used in Example 6.
At regular intervals throughout the study period patients underwent blood tests for clinical safety and glycaemic efficacy parameters. […] Clinical safety parameters in all groups were unchanged from baseline. There were no adverse events reported in the study attributable to the test substances.

Row | Substance | ability to bind to human pancreatic α cells [1] | Optical density reading, ELISA, antigen α-TCRVβ antibody [2] | Ratio Test/Control [2] | Ratio Test/Control [3] | Optical density reading, ELISA, antigen cardiolipin [3] | glycaemic control after cessation of antidiabetic medication ([4]; 1.51 mg dose) | dose dependence of effect ([4]; 1.51 mg vs 0.86 mg) | HbA1c, treatment difference vs placebo (group C) ([4]; 21 male volunteers subset, high dose group A (1.51 mg), p<0.001) | corrected fructosamine, treatment difference vs placebo (group C) ([4]; 21 male volunteers subset, high dose group A (1.51 mg), p=0.001) | fasting glucose, treatment difference vs placebo (group C) ([4]; 21 male volunteers subset, high dose group A (1.51 mg), p=0.005) | mean HbA1c level ([4]; baseline, high dose treatment group (1.51 mg NDX-71)) | mean HbA1c level ([4]; day 113, high dose treatment group (1.51 mg NDX-71)) | HbA1c levels over time vs placebo group ([4]; high dose treatment group (1.51 mg NDX-71), p=0.02) | glycaemic control compared with placebo ([4]; lower dose of 0.86 mg)
1 | CDR-H3: homodimer of CDR-H3 derived monomer peptides, each SEQ ID NO:10 (LRGLLPDY) plus an N terminal cysteine (SEQ ID NO:160) (chain 1 CLRGLLPDY; chain 2 CLRGLLPDY; cysteine pairing not given here; also: homodimer) | bound to the pancreatic α cells | 0.182 ± 0.009 | 2.00 | 2.16 | 0.132 ± 0.009 | – | – | – | – | – | – | – | – | –
2 | CDR-L3 (QQYNSYPLT; Protein Light chain HV3) | bound to the pancreatic α cells | 0.243 ± 0.008 | 1.74 | 2.23 | 0.254 ± 0.012 | – | – | – | – | – | – | – | – | –
3 | NDX-71: homodimer of CDR-H2 derived monomer peptides, each SEQ ID NO:8 (NIYPSDSYTNYNQKFKD) plus an N terminal cysteine (SEQ ID NO:159) (chain 1 CNIYPSDSYTNYNQKFKD; chain 2 CNIYPSDSYTNYNQKFKD; cysteine pairing not given here; also: homodimer) | bound to the pancreatic α cells | 0.307 ± 0.018 | 1.83 | 2.40 | 0.151 ± 0.020 | able to maintain good glycaemic control | dose response effect | Statistically significant treatment differences | Statistically significant treatment differences | Statistically significant treatment differences | 6.3% | 6.9% | significantly different from the placebo group | showed improvement as compared with placebo
